The values that follow come from patent publication EP3895685A1, “NATURAL COMPOSITION FOR HAIR GROWTH STIMULATION AND HAIR LOSS PREVENTION AND TREATMENT WITHOUT PRESERVATIVES” (Fraunhofer-Gesellschaft zur Förderung der angewandten …, priority 2020, dated 2021).

SMILES strings stand for the structures.

Data set [1] deals with HFDPC. As to the kind of experiment: Cell impedance test (xCELLigence, cell index) on proliferation and toxicity. Format: cell-based.
The test system of data set [2] is VEGF. As to the kind of experiment: VEGF-ELISA in cell culture supernatant. It counts as cell-based, human. From the text: If the cell membrane is damaged, the lactadehydrogenase (LDH) present inside the cell is released into the cell culture supernatant. The resulting NADH/H+ reduces the tetrazolium salt present in the reaction mixture to formazan. This becomes visible by a colour change, which can be detected at an absorption of 450 nm (y-axis: OD 450 nm) in the microplate reader. The higher the intensity of the colour change, the greater the degree of membrane damage. A low OD 450 nm value is desired. Four diagrams are presented: The LDH level after one week (LDH 1st Week of Trial), two weeks (LDH 2nd Week of Trial) and three weeks (LDH 3rd Week of Trial) after the HFDPC cells were exposed to the control conditions or to the actives substances. The control conditions are HFDPC with medium (blue, C+M). Active substances are arachidonate with low concentration (purple, Ara 1.c), arachidonate with high concentration (orange, Ara 2.c), diosgenin with low concentration (black, Dios 1.c), diosgenin with high concentration (brown, […]), ricinoleic acid with low concentration (dark blue, Rici 1.c), ricinoleic acid with high concentration (dark violet, Rici 2.c), inventive example with low concentration (red, IE 1.c) inventive example with high concentration (green, IE 2.c). The fourth diagram presents a background control, in which the LDH level was measured by OD 450 nm values (y-axis) from the cell culture supernatant for the medium (blue, M) as a control test and for the medium with the active substance in high concentrations (green, M+Ara 2.c; purple, M+Dios 2.c; orange, M+Rici 2.c; black, M+IE 2.c) after one, two and three weeks (x-axis). • FIG 2: Phase contrast images of untreated HFDPC (HFDPC in medium) 1 week after cell cultivation a) 10x magnification, b) 20x magnification • FIG 3: Phase contrast images of treated HFDPC in 20x magnification, one week after addition of the active ingredient a) Ara 1.c, b) Ara 2.c, c) Rici 1.c, d) Rici 2.c, e) Dios 1.c, f) Dios 2.c, g) IE 1.c, h) IE 2.c • FIG 4: Phase contrast images of untreated and treated HFDPC in 20x magnification, two weeks after addition of the active ingredient a) Medium b) Ara 1.c, c) Ara 2.c, d) Rici 1.c, e) Rici 3.c, f) Dios 1.c, g) Dios 2.c, h) IE 1.c, i) IE 2.c • FIG 5: Phase contrast images of untreated and treated HFDPC in 20x magnification, three weeks after addition of the active ingredient a) Medium b) Ara 1.c, c) Ara 2.c, d) Rici 1.c, e) Rici 3.c, f) Dios 1.c, g) Dios 2.c, h) IE 1.c, i) IE 2.c • FIG 6: Alkaline Phosphatase Alkaline phosphatase (AP) is an enzyme that catalyses the hydrolysis of a large number of phosphate esters. The enzyme is formed by the HFDPCs during the hair cycle. Thus, the detection of AP is the proof of hair growth. […]
(In general: ELISA stands for enzyme-linked immunosorbent assay.)

The test system of data set [3] is HFDPC. The data set is described as follows: Assessment of cell morphology by phase contrast microscopy. Format: cell-based, human. The settings on record: for cell adherence and proliferation (summary): confluence and cell shape after 3 weeks, diosgenin concentration-dependent. How it is done:
(§1) First, Human Follicle Dermal Papilla Cells (HFDPC) cells were thawed and seeded into collagen-coated cell culture flasks (T25). Then the medium was changed every 48 h. After 4 days the cells were trypsinized and seeded in T75 cell culture flask. In preparation for the final experiment, the cells were trypsinized and then counted with a cell counter. The cell concentration was then adjusted in a defined amount of medium followed by seeding of the cells in 96-well plates for the subsequent cell impedance measurements (5000 cells per well) or in 24-well plates (20000 cells per well). Subsequently, the cells were cultivated for 7 days in pure culture medium with regular medium changes after 2-3 days. After 7 days, the medium with the additives listed in Table 1 was added (designated as day 0), followed by a 3-week cultivation of the cells. The medium (and addition of fresh active substances) was changed every 2-3 days. […] The following examinations were carried out after 7, 14 and 21 days. Cells in pure culture medium (C+M) were used as controls (untreated). All cell culture substrates were coated with collagen prior to cell seeding. The tests with HFDPC were run without the use of preservatives.
Cell morphology was assessed through microscopic examination of the cells with an inverted microscope (phase contrast microscopy) at 10x and 20x primary magnification. The morphology of the cells provides information on the adherence behaviour of the cells,possible cell activation and cell stress. This examination was carried out on a 24-well scale.

Data set [4] relates to HFDPC. As to the kind of experiment: Cell count after trypsination. It counts as cell-based, human. The settings on record: for influence on the cell count (summary): over 3 weeks. How it is done:
as §1
This investigation was performed on a 24-well scale.
To perform this investigation 5000 cells per well were seeded in the 96-wells with the addition of a maximum of 200 µl medium. The cells were grown for 7 days in pure cell culture medium. The medium was changed every 2-3 days, whereby 100 µl of old medium was removed and replaced by 100 µl of new medium. After 7 days the "pure" cell culture medium was completely removed and medium with the respective additives was added. The cells were then cultivated for 3 weeks with regular replacement of the medium with the respective additives. Cell counting after trypsinizing: The exact cell count of HFDPC was determined after trypsination of the cells in the respective well and uptake of the resulting cell pellets in medium. All pellets of one sample were combined in a cell culture vessel and then counted with a cell counter.

Data set [5] has as its system HFDPC. The data set is described as follows: Immunofluorescent staining of vimentin. Format: cell-based, human. Conditions: 2. Concentration (2c).
The mark [6] stands for this setting: 250 µg/mL in medium, first 24 hours after addition.
Setting [7] is: 1 week after addition, versus untreated cells.
Where [8] appears, read: 2 weeks after addition, versus untreated cells.
The mark [9] stands for this setting: depending on concentration and time, compared to untreated cells.
Setting [10] is: 1. Concentration (1c), after 3 weeks.

As to `CCCCCC[C@@H](O)C/C=C\CCCCCCCC(=O)O` [Rici, 12-hydroxy-9-cis-octadecenoic acid], the cell index result in data set [1] (100µg/mL, after 24 h and 48 h addition) is “remained constant”; in data set [1] (setting [6]) it was “positive influence on the cell index”; in data set [1] (250 µg/mL, after 48h of repeated addition), “decreases”. Moreover, the “toxic effect on the cells” value in data set [1] (setting [6]) is given as “does not appear to have a toxic effect”. Also, the VEGF release result in data set [2] (2. Concentration (2.c), after 3 weeks) is recorded as “lower VEGF release”. The “cell morphology / confluence” value is “greater confluence” in data set [3] (setting [7]); “very high confluence in the well and elongated, typical growth” in data set [3] (setting [8]); “confluent, very dense monolayer and an elongated cell shape” in data set [3] (3 weeks after addition, both concentrations). Moreover, the “cell adherence and proliferation (summary)” value in data set [3] was “very beneficial”. The cell count result in data set [4] (after 1 week, compared to untreated cells) is given as “difference was visible”; in data set [4] (setting [9]), “significant increase in cell count”. In addition, in data set [4], the “influence on the cell count (summary)” value is “positive influence on the cell count”.
On to `CCCCC/C=C\C/C=C\C/C=C\C/C=C\CCCC(=O)[O-].[Na+]` [Ara, Sodium Arachidonate], for which the cell index result in data set [1] (50 µg/mL in medium) is given as “increase the cell index”. The “toxic effect on the cells” value is “does not have a toxic effect” in data set [1] (50 µg/mL in medium) and “has a toxic effect” in data set [1] (100µg/mL in medium). In data set [2] (setting [10]), the VEGF release result is “lower VEGF release”. In data set [5], the “cell spreading and attachment to the cell culture substrate” value was “able to clearly spread and attach to the cell culture substrate”. In addition, the cell density result in data set [3] (2 weeks after addition, higher concentration) is “higher cell density”. Further, in data set [3] (setting [8]), the “cell morphology / confluence” value is “almost the same morphology”. The cell count result in data set [4] (after 3 weeks, higher concentration, compared to untreated cells) is “increase in HFDPC”; in data set [4] (entire duration of the experiment, independent of time and concentration) it was “did not negatively affect the cell count”; in data set [4] (over 2 weeks), “remained constant”.
On to `C[C@@H]1CC[C@@]2(OC1)O[C@H]1C[C@H]3[C@@H]4CC=C5C[C@@H](O)CC[C@]5(C)[C@H]4CC[C@]3(C)[C@H]1[C@@H]2C` [Dios, Diosgenin], for which, in data set [1] (measured maximum concentration of 500 µg/mL), the “toxicity in the cellular impedance test” value is given as “not toxic”. Further, the VEGF release entry is reported as “lower VEGF release” in data set [2] (1. Concentration (1c), after 1 week) and “lower VEGF release” in data set [2] (setting [10]). For the same compound, in data set [5], the “cell spreading and attachment to the cell culture substrate” value was “able to clearly spread and attach to the cell culture substrate”. The “cell morphology / confluence” value is “greater confluence” in data set [3] (setting [7]); “very high confluence in the well and elongated, typical growth” in data set [3] (setting [8]); “resembled untreated cells” in data set [3] (3 weeks after addition, lower concentration). Also, in data set [3], the “cell adherence and proliferation (summary)” value is listed as “very beneficial”. Moreover, the “number of HDFPC” value in data set [4] (1c, over time) is recorded as “remained constant after addition of Diosgenin 1c, but was increased compared to untreated cells”. For the same compound, in data set [4] (2c, over time, compared to untreated and Diosgenin 1c treated cells), the cell number entry is “significant increase in cell number”. In addition, the cell count result in data set [4] (setting [9]) was “positive influence on the cell number”. In addition, the “influence on the cell count (summary)” value in data set [4] was “positive influence on the cell count”.
